Assay results taken from the NIST ThermoML archive (doi:10.1021/je901043q).

Assay: xn = mol fraction of the nth substance listed
Settings: 101 kPa, Liquid

CCCCn1cc[n+](C)c1.N#C[S-] [1-butyl-3-methylimidazolium thiocyanate] + CCCCCCCCCCO
Settings | mass density [kg/m3] | viscosity [mPa·s]
298.15 K, x1 = 0.0747 | 843.95 | 13.07
298.15 K, x1 = 0.1621 | 864.67 | 15.5
298.15 K, x1 = 0.2537 | 886.57 | 18.67
298.15 K, x1 = 0.3512 | 910.03 | 22.48
298.15 K, x1 = 0.4924 | 944.3 | 28.36
298.15 K, x1 = 0.5922 | 968.81 | 32.87
298.15 K, x1 = 0.6659 | 987.05 | 36.09
298.15 K, x1 = 0.7576 | 1009.83 | 40
298.15 K, x1 = 0.8692 | 1037.62 | 45.01
298.15 K, x1 = 0.9587 | 1059.8 | 49.31
298.15 K, x1 = 1 | 1069.79 | 51.74
308.15 K, x1 = 0.0747 | 837.19 | 9.168
308.15 K, x1 = 0.1621 | 857.99 | 10.96
308.15 K, x1 = 0.2537 | 879.95 | 13.08
308.15 K, x1 = 0.3512 | 903.51 | 15.62
308.15 K, x1 = 0.4924 | 938.02 | 19.52
308.15 K, x1 = 0.5922 | 962.63 | 22.29
308.15 K, x1 = 0.6659 | 981.01 | 24.5
308.15 K, x1 = 0.7576 | 1003.83 | 27.12
308.15 K, x1 = 0.8692 | 1031.69 | 30.46
308.15 K, x1 = 0.9587 | 1053.86 | 33.3
308.15 K, x1 = 1 | 1063.89 | 34.87
318.15 K, x1 = 0.0747 | 830.4 | 6.582
318.15 K, x1 = 0.1621 | 851.35 | 7.964
318.15 K, x1 = 0.2537 | 873.42 | 9.541
318.15 K, x1 = 0.3512 | 897.08 | 11.39
318.15 K, x1 = 0.4924 | 931.78 | 14.06
318.15 K, x1 = 0.5922 | 956.5 | 16.04
318.15 K, x1 = 0.6659 | 974.94 | 17.59
318.15 K, x1 = 0.7576 | 997.87 | 19.4
318.15 K, x1 = 0.8692 | 1025.8 | 21.56
318.15 K, x1 = 0.9587 | 1048.02 | 23.3
318.15 K, x1 = 1 | 1058.02 | 24.19
328.15 K, x1 = 0.0747 | 823.59 | 4.88
328.15 K, x1 = 0.1621 | 844.7 | 5.959
328.15 K, x1 = 0.2537 | 866.89 | 7.162
328.15 K, x1 = 0.3512 | 890.79 | 8.553
328.15 K, x1 = 0.4924 | 925.54 | 10.62
328.15 K, x1 = 0.5922 | 950.4 | 11.98
328.15 K, x1 = 0.6659 | 968.92 | 12.98
328.15 K, x1 = 0.7576 | 991.96 | 14.04
328.15 K, x1 = 0.8692 | 1019.98 | 15.15
328.15 K, x1 = 0.9587 | 1042.2 | 16.1
328.15 K, x1 = 1 | 1052.19 | 16.7
338.15 K, x1 = 0.0747 | 816.7 | 3.741
338.15 K, x1 = 0.1621 | 838 | 4.567
338.15 K, x1 = 0.2537 | 860.36 | 5.526
338.15 K, x1 = 0.3512 | 884.37 | 6.586
338.15 K, x1 = 0.4924 | 919.35 | 8.183
338.15 K, x1 = 0.5922 | 944.32 | 9.243
338.15 K, x1 = 0.6659 | 962.91 | 9.998
338.15 K, x1 = 0.7576 | 986.05 | 10.76
338.15 K, x1 = 0.8692 | 1014.18 | 11.46
338.15 K, x1 = 0.9587 | 1036.43 | 12.18
338.15 K, x1 = 1 | 1046.43 | 12.73
348.15 K, x1 = 0.0747 | 809.76 | 2.909
348.15 K, x1 = 0.1621 | 831.23 | 3.578
348.15 K, x1 = 0.2537 | 853.79 | 4.411
348.15 K, x1 = 0.3512 | 877.97 | 5.195
348.15 K, x1 = 0.4924 | 913.13 | 6.455
348.15 K, x1 = 0.5922 | 938.26 | 7.278
348.15 K, x1 = 0.6659 | 956.95 | 7.875
348.15 K, x1 = 0.7576 | 980.21 | 8.487
348.15 K, x1 = 0.8692 | 1008.43 | 9.047
348.15 K, x1 = 0.9587 | 1030.7 | 9.624
348.15 K, x1 = 1 | 1040.7 | 9.98

CCCCn1cc[n+](C)c1.N#C[S-] [1-butyl-3-methylimidazolium thiocyanate] + CCCCCCCCO
Settings | mass density [kg/m3] | viscosity [mPa·s]
298.15 K, x1 = 0.0874 | 847.17 | 9.062
298.15 K, x1 = 0.1352 | 860.64 | 10.03
298.15 K, x1 = 0.2208 | 884.32 | 12.08
298.15 K, x1 = 0.3599 | 921.24 | 16.3
298.15 K, x1 = 0.4693 | 949.07 | 20.44
298.15 K, x1 = 0.5739 | 974.82 | 24.86
298.15 K, x1 = 0.675 | 998.86 | 29.44
298.15 K, x1 = 0.7673 | 1020.12 | –
298.15 K, x1 = 0.8721 | 1043.42 | 39.69
298.15 K, x1 = 0.9619 | 1062.27 | 45.09
298.15 K, x1 = 1 | 1069.79 | 51.74
308.15 K, x1 = 0.0874 | 840.37 | 6.504
308.15 K, x1 = 0.1352 | 853.92 | 7.237
308.15 K, x1 = 0.2208 | 877.72 | 8.726
308.15 K, x1 = 0.3599 | 914.82 | 11.7
308.15 K, x1 = 0.4693 | 942.78 | 14.47
308.15 K, x1 = 0.5739 | 968.64 | 17.39
308.15 K, x1 = 0.675 | 992.79 | 20.38
308.15 K, x1 = 0.7673 | 1014.13 | –
308.15 K, x1 = 0.8721 | 1037.47 | 26.63
308.15 K, x1 = 0.9619 | 1056.33 | 29.99
308.15 K, x1 = 1 | 1063.89 | 34.87
318.15 K, x1 = 0.0874 | 833.52 | 4.842
318.15 K, x1 = 0.1352 | 847.19 | 5.396
318.15 K, x1 = 0.2208 | 871.11 | 6.516
318.15 K, x1 = 0.3599 | 908.42 | 8.719
318.15 K, x1 = 0.4693 | 936.52 | 10.67
318.15 K, x1 = 0.5739 | 962.5 | 12.72
318.15 K, x1 = 0.675 | 986.77 | 14.79
318.15 K, x1 = 0.7673 | 1008.17 | –
318.15 K, x1 = 0.8721 | 1031.58 | 18.95
318.15 K, x1 = 0.9619 | 1050.45 | 21.14
318.15 K, x1 = 1 | 1058.02 | 24.19
328.15 K, x1 = 0.0874 | 826.65 | 3.691
328.15 K, x1 = 0.1352 | 840.37 | 4.158
328.15 K, x1 = 0.2208 | 864.48 | 5.003
328.15 K, x1 = 0.3599 | 902.01 | 6.654
328.15 K, x1 = 0.4693 | 930.28 | 8.141
328.15 K, x1 = 0.5739 | 956.41 | 9.644
328.15 K, x1 = 0.675 | 980.77 | 11.14
328.15 K, x1 = 0.7673 | 1002.28 | –
328.15 K, x1 = 0.8721 | 1025.72 | 14.06
328.15 K, x1 = 0.9619 | 1044.62 | 15.59
328.15 K, x1 = 1 | 1052.19 | 16.7
338.15 K, x1 = 0.0874 | 819.63 | 2.884
338.15 K, x1 = 0.1352 | 833.53 | 3.272
338.15 K, x1 = 0.2208 | 857.82 | 3.928
338.15 K, x1 = 0.3599 | 895.62 | 5.233
338.15 K, x1 = 0.4693 | 924.05 | 6.379
338.15 K, x1 = 0.5739 | 950.33 | 7.509
338.15 K, x1 = 0.675 | 974.82 | 8.648
338.15 K, x1 = 0.7673 | 996.4 | –
338.15 K, x1 = 0.8721 | 1019.88 | 10.82
338.15 K, x1 = 0.9619 | 1038.82 | 11.94
338.15 K, x1 = 1 | 1046.43 | 12.73
348.15 K, x1 = 0.0874 | 812.55 | 2.306
348.15 K, x1 = 0.1352 | 826.58 | 2.633
348.15 K, x1 = 0.2208 | 851.13 | 3.171
348.15 K, x1 = 0.3599 | 889.21 | 4.233
348.15 K, x1 = 0.4693 | 917.85 | 5.1
348.15 K, x1 = 0.5739 | 944.27 | 5.987
348.15 K, x1 = 0.675 | 968.89 | 6.874
348.15 K, x1 = 0.7673 | 990.57 | –
348.15 K, x1 = 0.8721 | 1014.14 | 8.592
348.15 K, x1 = 0.9619 | 1033.09 | 9.462
348.15 K, x1 = 1 | 1040.7 | 9.98
